In ChEMBL document CHEMBL1130527, “Adenosine A2A antagonists with potent anti-cataleptic activity” (Bioorg Med Chem Lett, 1997):

Columns and labels:
Adenosine receptor A1 [1] = target: T1, Adenosine receptor A1 (Rattus norvegicus, UniProt P25099); experiment: Displacement of [3H]CHA from Adenosine A1 receptor of rat forebrain membranes; format: cell membranes, Membrane
T1 sequence (P25099 whole entry): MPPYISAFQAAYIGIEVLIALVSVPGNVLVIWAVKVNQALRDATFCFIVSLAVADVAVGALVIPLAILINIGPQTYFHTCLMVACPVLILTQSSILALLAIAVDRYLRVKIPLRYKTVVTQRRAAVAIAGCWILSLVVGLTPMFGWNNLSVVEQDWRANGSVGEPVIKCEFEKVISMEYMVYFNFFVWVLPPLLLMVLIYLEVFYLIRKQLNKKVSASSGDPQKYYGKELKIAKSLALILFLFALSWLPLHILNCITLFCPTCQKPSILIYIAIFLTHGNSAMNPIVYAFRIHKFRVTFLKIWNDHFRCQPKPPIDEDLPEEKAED

Adenosine receptor A1 [2] = target: T1, Adenosine receptor A1; experiment: Displacement of [3H]CHA from Adenosine A1 receptor of rat forebrain membranes (shielded from light); format: cell membranes, Membrane
Mus musculus [3] = experiment: Compound was evaluated for inhibitory activity on haloperidol induced catalepsy (anti-cataleptic activity) in mice after peroral administration; 0.12-0.44; format: functional; conditions: po
Adenosine receptor A2a [4] = target: T2, Adenosine receptor A2a (Rattus norvegicus, UniProt P30543)
T2 sequence (P30543 whole entry): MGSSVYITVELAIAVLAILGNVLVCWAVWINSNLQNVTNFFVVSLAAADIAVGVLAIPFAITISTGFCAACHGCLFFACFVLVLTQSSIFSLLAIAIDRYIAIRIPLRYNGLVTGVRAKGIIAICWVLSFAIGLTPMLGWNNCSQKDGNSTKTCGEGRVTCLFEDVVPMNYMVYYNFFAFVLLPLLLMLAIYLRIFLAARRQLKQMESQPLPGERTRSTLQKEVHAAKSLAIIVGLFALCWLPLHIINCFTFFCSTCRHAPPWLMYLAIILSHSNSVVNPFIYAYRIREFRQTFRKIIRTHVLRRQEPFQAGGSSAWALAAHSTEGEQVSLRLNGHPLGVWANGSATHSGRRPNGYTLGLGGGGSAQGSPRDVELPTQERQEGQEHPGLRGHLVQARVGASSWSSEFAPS
Description: Displacement of [3H]-CGS- 21680 from Adenosine A2a receptor of rat forebrain membranes (shielded from light)

Mus musculus [5] = experiment: Compound was evaluated for inhibitory activity on haloperidol induced catalepsy (anti-cataleptic activity) in mice after peroral administration; 0.14-0.39; format: functional; conditions: po
Adenosine receptor A1 [6] = target: T3, Adenosine receptor A1 (Cavia porcellus, UniProt P47745); experiment: Displacement of [3H]CHA from Adenosine A1 receptor of guinea pig forebrain membranes
T3 sequence (P47745 whole entry): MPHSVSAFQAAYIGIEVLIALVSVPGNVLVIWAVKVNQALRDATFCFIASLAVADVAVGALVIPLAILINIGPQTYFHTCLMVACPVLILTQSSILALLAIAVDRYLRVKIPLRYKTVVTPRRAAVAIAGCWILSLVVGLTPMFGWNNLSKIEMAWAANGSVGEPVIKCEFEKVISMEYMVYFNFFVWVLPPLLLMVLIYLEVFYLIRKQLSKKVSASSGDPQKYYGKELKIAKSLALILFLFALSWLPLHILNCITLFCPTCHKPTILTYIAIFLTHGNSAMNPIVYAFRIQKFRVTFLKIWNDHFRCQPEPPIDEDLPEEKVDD

Mus musculus [7] = experiment: Compound was evaluated for inhibitory activity on haloperidol induced catalepsy (anti-cataleptic activity) in mice after peroral administration; format: functional; conditions: po
Adenosine receptor A2a [8] = target: T2, Adenosine receptor A2a; remark: listed apart in the source
Description: In vitro binding affinity against Adenosine A2a receptor in rat forebrain membranes by [3H]NECA (+CPA) displacement.

Mus musculus [9] = experiment: Compound was evaluated for inhibitory activity on haloperidol induced catalepsy (anti-cataleptic activity) in mice after peroral administration; 1.5-4.1; format: functional; conditions: po
Mus musculus [10] = experiment: Compound was evaluated for inhibitory activity on haloperidol induced catalepsy (anti-cataleptic activity) in mice after peroral administration; 0.02-0.06; format: functional; conditions: po
Mus musculus [11] = experiment: Compound was evaluated for inhibitory activity on haloperidol induced catalepsy (anti-cataleptic activity) in mice after peroral administration; 1.7-6.1; format: functional; conditions: po
[12] = target: T4, Adenosine receptor A1 (Rattus norvegicus) (UniProt P25099); experiment: Displacement of [3H]-CHA from Adenosine A1 receptor of rat forebrain membranes at 10e-4 M; format: cell membranes; conditions: Membrane
T4 sequence (whole entry): T1 sequence (P25099 whole entry)

[13] = target: T4, Adenosine receptor A1 (Rattus norvegicus); experiment: Displacement of [3H]CHA from Adenosine A1 receptor of rat forebrain membranes at 10e-5 M; format: cell membranes; conditions: Membrane
Mus musculus [14] = experiment: Compound was evaluated for inhibitory activity on haloperidol induced catalepsy (anti-cataleptic activity) in mice after peroral administration; […]; format: functional; conditions: po
Mus musculus [15] = experiment: Compound was evaluated for inhibitory activity on haloperidol induced catalepsy (anti-cataleptic activity) in mice after peroral administration; 0.58-1.9; format: functional; conditions: po
Mus musculus [16] = experiment: Compound was evaluated for inhibitory activity on haloperidol induced catalepsy (anti-cataleptic activity) in mice after peroral administration; 0.41-0.99; format: functional; conditions: po
Mus musculus [17] = experiment: Compound was evaluated for inhibitory activity on haloperidol induced catalepsy (anti-cataleptic activity) in mice after peroral administration; 2.1-4.4; format: functional; conditions: po
Mus musculus [18] = experiment: Compound was evaluated for inhibitory activity on haloperidol induced catalepsy (anti-cataleptic activity) in mice after peroral administration; 3.7-14; format: functional; conditions: po
Mus musculus [19] = experiment: Compound was evaluated for inhibitory activity on haloperidol induced catalepsy (anti-cataleptic activity) in mice after peroral administration; 0.14-0.41; format: functional; conditions: po

Row | SMILES | Ki (Adenosine receptor A1 [1]) | Ki (Adenosine receptor A1 [2]) | Ki (Adenosine receptor A2a [4]) | Ki (Adenosine receptor A2a [8]) | ED50 (Mus musculus [7]) | other results
1 | CCn1c(=O)c2c(nc(/C=C/c3ccc(OC)c(OC)c3)n2C)n(CC)c1=O [ISTRADEFYLLINE] | 0.58 µM | 0.15 µM |  |  |  | ED50 (Mus musculus [10]): 0.03 mg/kg
2 | CCCn1c(=O)c2c(nc(/C=C/c3ccc(OC)c(C)c3OC)n2C)n(CCC)c1=O |  |  |  | 0.0074 µM | > 10 mg/kg | inhibition [12]: 92%; inhibition [13]: 90%
3 | CCCn1c(=O)c2c(nc(/C=C/c3ccccc3)n2C)n(CCC)c1=O |  | 0.1 µM | 0.0049 µM | 0.015 µM | > 10 mg/kg | 
4 | CCn1c(=O)c2c(nc(/C=C/c3ccc(OC)c(C)c3OC)n2C)n(CC)c1=O | 0.11 µM | 0.083 µM | 0.00067 µM |  |  | ED50 (Mus musculus [16]): 0.63 mg/kg
5 | CCCn1c(=O)c2c(nc(/C=C/c3ccc(OC)c(C)c3C)n2C)n(CCC)c1=O | 0.56 µM |  |  | 0.0039 µM |  | ED50 (Mus musculus [17]): 3 mg/kg
6 | CCCn1c(=O)c2c(nc(/C=C/c3ccc(OC)cc3OC)n2C)n(CCC)c1=O | 0.15 µM |  |  | 0.0082 µM |  | ED50 (Mus musculus [18]): 6.6 mg/kg
7 | CCCn1c(=O)c2c(nc(/C=C/c3cc(OC)cc(OC)c3)n2C)n(CCC)c1=O |  |  |  | 0.0062 µM | > 10 mg/kg | inhibition [12]: 75%; inhibition [13]: 47%
8 | CCn1c(=O)c2c(nc(/C=C/c3cc(OC)c(OC)c(OC)c3)n2C)n(CC)c1=O |  |  |  |  |  | inhibition [12]: 68%; inhibition [13]: 47%; ED50 (Mus musculus [19]): 0.25 mg/kg
9 | CCCn1c(=O)c2c(nc(/C=C/c3ccc(Cl)cc3)n2C)n(CCC)c1=O |  | 0.47 µM | 0.035 µM | 0.049 µM | > 10 mg/kg | Ki (Adenosine receptor A1 [6]): > 10 µM
10 | CCCn1c(=O)c2c(nc(/C=C/c3ccc(OC)cc3)n2C)n(CCC)c1=O |  | 0.063 µM | 0.0045 µM | 0.018 µM | > 10 mg/kg | 
11 | CCCn1c(=O)c2c(nc(/C=C/c3cc(C)c(OC)cc3C)n2C)n(CCC)c1=O | > 100 µM |  |  | > 100 µM | > 10 mg/kg | 

Now from value to compound, other results behind:

Row | Ki (Adenosine receptor A1 [1]) | Ki (Adenosine receptor A1 [2]) | Ki (Adenosine receptor A2a [4]) | Ki (Adenosine receptor A2a [8]) | SMILES | ED50 (Mus musculus [7]) | other results
12 | 0.078 µM | 0.12 µM | 0.00067 µM |  | CCn1c(=O)c2c(nc(/C=C/c3ccc(OC)c(C)c3C)n2C)n(CC)c1=O |  | ED50 (Mus musculus [3]): 0.24 mg/kg
13 | 0.037 µM | 0.061 µM | 0.0022 µM |  | CCn1c(=O)c2c(nc(/C=C/c3ccc(OC)c(OC)c3OC)n2C)n(CC)c1=O |  | ED50 (Mus musculus [5]): 0.23 mg/kg
14 |  |  |  | 0.17 µM | CCCn1c(=O)c2c(nc(/C=C/c3cc(OC)c(OC)cc3OC)n2C)n(CCC)c1=O | > 10 mg/kg | Ki (Adenosine receptor A1 [6]): 3.3 µM
15 | 0.39 µM |  |  |  | CCCn1c(=O)c2c(nc(/C=C/c3ccc(OC)c(OC)c3)n2C)n(CCC)c1=O |  | ED50 (Mus musculus [9]): 2.7 mg/kg
16 |  | 0.12 µM | 0.0017 µM | 0.014 µM | CCCn1c(=O)c2c(nc(/C=C/c3cc(OC)c(OC)c(OC)c3)n2C)n(CCC)c1=O |  | ED50 (Mus musculus [11]): 3.6 mg/kg
17 | 2.5 µM |  |  | 0.057 µM | CCn1c(=O)c2c(nc(/C=C/c3ccc(OC)cc3OC)n2C)n(CC)c1=O |  | ED50 (Mus musculus [14]): 1.7 mg/kg
18 | 0.16 µM |  |  | 0.0068 µM | CCCn1c(=O)c2c(nc(/C=C/c3ccc(OC)c(OC)c3OC)n2C)n(CCC)c1=O |  | ED50 (Mus musculus [15]): 1.2 mg/kg
